Results from patent publication US7132421B2, “CIS-imidazoles” (Hoffmann-La Roche Inc., priority 2003, dated 2006).
pIC50: −log10 of the molar value.

Target: interaction between p53 and MDM2 proteins (recombinant GST-tagged MDM2) (Homo sapiens, UniProt Q00987)
Test: ELISA of inhibition of p53-MDM2 interaction (GST-tagged MDM2 binding to immobilized p53-like peptide)
Conditions: absorption at 450 nm, triplicate

Chain of interaction between p53 and MDM2 proteins (recombinant GST-tagged MDM2) (Q00987 whole entry): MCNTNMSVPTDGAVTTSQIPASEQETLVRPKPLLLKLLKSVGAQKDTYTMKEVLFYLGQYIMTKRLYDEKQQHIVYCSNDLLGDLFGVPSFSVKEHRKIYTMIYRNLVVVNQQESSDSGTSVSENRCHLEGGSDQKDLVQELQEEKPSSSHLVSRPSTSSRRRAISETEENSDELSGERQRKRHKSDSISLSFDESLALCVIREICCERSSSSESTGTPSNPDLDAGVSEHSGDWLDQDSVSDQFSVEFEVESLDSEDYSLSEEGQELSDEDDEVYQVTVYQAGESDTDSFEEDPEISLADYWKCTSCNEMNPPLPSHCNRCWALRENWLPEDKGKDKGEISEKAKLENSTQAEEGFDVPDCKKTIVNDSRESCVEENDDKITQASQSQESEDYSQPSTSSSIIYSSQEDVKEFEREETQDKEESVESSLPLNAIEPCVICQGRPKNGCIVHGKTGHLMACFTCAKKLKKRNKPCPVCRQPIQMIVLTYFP

Row | pIC50 | Compound
1 | 4.35 | CCC[C@H]1N=C(c2ccc(OC)cc2OCC)N(C(=O)N2CCC(N3CCCC3)CC2)[C@H]1c1ccc(Cl)cc1 (stereo in doubt) [Example 26, [5-(4-Chloro-phenyl)-2-(2-ethoxy-4-methoxy-phenyl)-4-propyl-4,5-dihydro-imidazol-1-yl]-(4-pyrrolidin-1-yl-piperidin-1-yl)-methanone]
2 | 6.15 | CCCCC[C@H]1N=C(c2ccc(OC)cc2OCC)N(C(=O)N2CCC(N3CCCC3)CC2)[C@H]1c1ccc(Cl)cc1 (relative stereo) [Example 55, [5-(4-Chloro-phenyl)-2-(2-ethoxy-4-methoxy-phenyl)-4-pentyl-4,5-dihydro-imidazol-1-yl]-(4-pyrrolidin-1-yl-piperidin-1-yl)-methanone]
3 | 5.26 | CCOc1cc(OC)ccc1C1=N[C@H](CC2CCCC2)[C@H](c2ccc(Cl)cc2)N1C(=O)N1CCC(N2CCCC2)CC1 (relative stereo) [Example 28, [5-(4-Chloro-phenyl)-4-cyclopentylmethyl-2-(2-ethoxy-4-methoxy-phenyl)-4,5-dihydro-imidazol-1-yl]-(4-pyrrolidin-1-yl-piperidin-1-yl)-methanone]
4 | 4.88 | CCOc1cc(OC)ccc1C1=N[C@H](CC2CCCC2)[C@H](c2ccc(Cl)cc2)N1C(=O)N1CCN(C)CC1 (stereo in doubt) [Example 24, [5-(4-Chloro-phenyl)-4-cyclopentylmethyl-2-(2-ethoxy-4-methoxy-phenyl)-4,5-dihydro-imidazol-1-yl]-(4-methyl-piperazin-1-yl)-methanone]
